Source: patent US20240124470A1, “FIVE-MEMBERED RING DERIVATIVE AND MEDICAL USE THEREOF” (SICHUAN HAISCO PHARMACEUTICAL CO., LTD., priority 2020, published 2024)

Assays:
[1] = Evaluation of pharmacokinetics in mice; assay type: in vivo; settings: male, mouse, plasma, oral; C57 mice, intravenous 5 mg/kg and intragastric 20 mg/kg
Procedure: Evaluation of Pharmacokinetics in Mice
Male C57 mice (purchased from Hunan SJA Laboratory Animal Co., Ltd, license number: SCXK (Xiang) 2019-0004), 20-25 g, were fasted overnight. On the day of the experiment, 18 male C57 mice were divided into 2 groups, with 9 mice in each group. The test compound was administered intravenously and intragastrically at doses of 5 mg/kg and 20 mg/kg respectively. Before administration and 5 min, 15 min, 30 min, 1 h, 2 h, 4 h, 6 h, 8 h and 24 h after administration, 0.1 ml of blood was collected from the orbital venous plexus, placed in an EDTAK2 centrifuge tube, and centrifuged at 6000 rpm at 4° C. for 5 min, and then the plasma was collected. The plasma sample was added to an acetonitrile solution containing an internal standard (dexamethasone, 500 ng/mL), vortexed and centrifuged at 10,000 rpm for 10 min, and the supernatant was taken for LC-MS/MS analysis. Pharmacokinetic parameters were calculated using the non-compartmental model in WinNonlin Version 8.0 (Pharsight, Mountain View, CA) pharmacokinetic software.

[2] = Evaluation of pharmacokinetics in cynomolgus monkeys; assay type: in vivo; settings: intravenous 2 mg/kg and intragastric 10 mg/kg
Procedure: Evaluation of Pharmacokinetics in Cynomolgus Monkeys
Male cynomolgus monkeys (raised in Suzhou LEOLAB Bio Tech. Co., Ltd.), weighing 3-5 kg, were fasted overnight (14-18 h), […]. On the day of the experiment, 6 male cynomolgus monkeys were divided into 2 groups, with 3 […] in each group. The test compound was administered intravenously and intragastrically at doses of 2 mg/kg and 10 mg/kg respectively. Before administration and 5 min, 15 min, 30 min, 1 h, 2 h, 4 h, 6 h, 8 h 10 h, 12 h and 24 h after administration, 1 ml of blood was collected via the limb vein, placed in an EDTAK2 centrifuge tube, and centrifuged at 6000 rpm at 4° C. for 5 min, and then the plasma was collected. The plasma sample was added to an acetonitrile solution containing an internal standard (dexamethasone, 500 ng/mL), vortexed and centrifuged at 10,000 rpm for 10 min, and the supernatant was taken for LC-MS/MS analysis. Pharmacokinetic parameters were calculated using the non-compartmental model in WinNonlin Version 8.0 (Pharsight, Mountain View, CA) pharmacokinetic software. Conclusion: The compounds of the present invention have good metabolic properties.

[3] = target: T1, CYP1A2 (Homo sapiens, UniProt P05177); test: Cytochrome P450 isoenzyme inhibition test, human liver microsomes: CYP1A2; assay type: in vitro ADME; settings: human liver microsomes 0.1 mg/mL; read-out: IC50, inhibitory activity on CYP1A2
T1 construct: pre-incubated with the human liver microsome solutions containing 5 enzyme mixed substrates; from tissue; host or cells: human liver microsomes
T1 sequence (P05177 1-516): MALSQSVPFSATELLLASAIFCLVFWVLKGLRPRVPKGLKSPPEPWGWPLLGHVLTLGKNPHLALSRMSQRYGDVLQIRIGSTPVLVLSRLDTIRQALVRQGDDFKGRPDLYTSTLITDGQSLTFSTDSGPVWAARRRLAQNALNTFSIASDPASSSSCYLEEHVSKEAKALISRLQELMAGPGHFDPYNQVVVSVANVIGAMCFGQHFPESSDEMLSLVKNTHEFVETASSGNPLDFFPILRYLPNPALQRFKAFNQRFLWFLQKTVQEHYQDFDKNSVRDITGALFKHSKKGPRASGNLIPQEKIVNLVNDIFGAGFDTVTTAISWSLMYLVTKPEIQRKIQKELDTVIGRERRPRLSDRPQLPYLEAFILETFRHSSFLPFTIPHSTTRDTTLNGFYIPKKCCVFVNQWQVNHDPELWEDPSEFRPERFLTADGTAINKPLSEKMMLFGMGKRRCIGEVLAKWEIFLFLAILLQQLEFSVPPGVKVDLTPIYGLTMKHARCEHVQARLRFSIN
Procedure: 9. Cytochrome P450 Isoenzyme Inhibition Test Experimental objective: The inhibitory effect of the test compound on the activity of human liver microsomal cytochrome P450 isoenzyme (CYP1A2, CYP2C19, CYP2D6 and CYP3A4) was determined. Experimental operation: The test compound at an incubation concentration of 0, 0.03, 0.1, 0.3, 1, 3, 10, 30 and 100 μM was pre-incubated with the human liver microsome solutions containing 5 enzyme mixed substrates (liver microsome concentration: 0.1 mg/mL) in a water bath at 37° C. for 10 min, respectively, and then a coenzyme factor (NADPH) was added to start the reaction. After incubation in a water bath at 37° C. for 10 min, the reaction was terminated by adding glacial acetonitrile solution containing an internal standard, shaken for 1 min, centrifuged at 4° C. and 10,000 rpm for 10 min, and the supernatant was taken for LC/MS/MS analysis. The amount of metabolites produced by each CYP enzyme substrate was detected. The activity of each CYP isoenzyme was reflected by the production rate of each metabolite. […]

- bioavailability [1]: > 25%
- clearance rate in monkeys [2]: low clearance rate
- half-life in monkeys [2]: long half-life
- IC50 [3]: > 50 µM
Compound: N#Cc1ccc(COc2cccc(-c3ccc(Cc4nc5sc(C(=O)O)cc5n4C[C@@H]4CCO4)c(F)c3)n2)c(F)c1 [Compound 6, (S)-2-(4-(6-((4-cyano-2-fluorobenzyl)oxy)pyridin-2-yl)-2-fluorobenzyl)-1-(oxetan-2-ylmethyl)-1H-thieno[2,3-d]imidazole-5-carboxylic acid]
